Measured values published in paper PMC12020424, “Identification and Validation of Cyclic Peptides with Mucin-Selective, Location-Specific Binding in the Gastrointestinal Tract” (ACS Nano, 2025).
Bridge positions count the residues as written; N and C are the ends. Ends that are not written are not given here.

Experiments:
[1] = target: T1, MUC5AC (Homo sapiens, UniProt P98088); assay: Phage display (CX7C library) against MUC5AC, Sanger sequencing; assay type: binding; conditions: MUC5AC phage screening, third round of panning, 16 sequenced candidates
Procedure: For each mucin of interest, 5 μg of mucin protein was diluted in 150 μL of Tris-buffered saline (TBS) and added to 2 wells of a microtiter plate. The plate was left overnight in a humidified, sealed container with agitation at 50 rpm. After the overnight mucin coating, the solution was poured out, and 300 μL of blocking buffer was added to the wells for 1 h. After the 1 h waiting period, the blocking buffer was poured out, and the wells were washed three times with 300 μL of Tris-buffered saline with TBST (TBS + 0.1% (v/v) Tween-20) to remove nonspecific binding on the mucin layer coating. Next, 5 μL of the C7C library diluted with 95 μL of TBST was added to each blocked well and placed on shaker for 45 min, before pouring out the nonbinding phage and washing the plate ten times with TBST. A 0.2 M glycine-HCl elution buffer (pH 2.2, 100 μL) was added to each well and placed on a shaker for 20 min to release the mucin-layer binding peptides on the plate as unamplified eluate, with the pH neutralized by 30 μL of neutralization buffer (1 M Tris-HCl, pH 9).
E. coli liquid cultures were prepared by adding E. coli cells to 20 mL of LB media and placing them in shaking conditions at 37 °C and 250 rpm for 2 h and 45 min. The unamplified eluate (1 μL of which was saved for titering) was added to the E. coli cultures under the same conditions for 4 h and 45 min for amplification. […]

[2] = target: T1, MUC5AC; assay: Phage ELISA on MUC5AC; assay type: binding; conditions: phage clones displaying the peptide, 10^7 PFU/μL, MUC5AC-coated plate, anti-M13/HRP, TMB, 450 nm, blank subtracted, three wells; vs random library and insertless phage
Description: We next sought to validate the binding efficiency of these identified phage clones. We tested phage clones displaying peptides M2.1, M2.2, M2.3, and M2.4 for binding to MUC2, and phage clones displaying peptides M5.1, M5.2, M5.3, and M5.4 for binding to MUC5AC. We utilized a bacteriophage enzyme-linked immunosorbent assay to test the binding of the peptide hits to the specific target mucins, MUC2 and MUC5AC (Figure 2d). The spectrophotometer reported absorbance values at 450 nm. The intensity of the absorbance signal is proportional to the amount of peptide-mucin binding present in each sample. The negative controls (library samples and insertless samples) served as references for nonspecific binding.
First, mucin was coated onto the surface of a plastic plate overnight using the same process as that performed for the original phage display. The next morning, three wells of each phage clone were prepared, with each phage solution having a titer of 10^7 PFU/μL to ensure a fair comparison between the clones. […]
However, instead of eluting the bound phage, 100 μL of 1:2000 anti-M13/HRP mouse monoclonal antibody was added to each well, and the antibody was allowed to incubate with the wells for 30 min. […] The resulting solutions were analyzed by absorbance spectroscopy at a wavelength of 450 nm to determine the relative amount of phage present in each well.

% Prevalence [1]: 18.75%
Sequence: CTDKASSSC (disulfide 1-9 (inferred)) [Peptide M5.1, CX7C cyclic peptide hit for MUC5AC]
phage ELISA binding vs negative controls [2]: significantly greater binding to MUC5AC than the random library and insertless phage
